The compounds below were run on MCF10A (assay: GRmax, 72 h; higher = less effect;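 note: breast cell lines in 384-well plates, nine doses across a 10^4 range, Dye Drop imaging of viable cells vs DMSO and time-zero plates, GR 0 means no net growth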).

| Structure (SMILES) | GRmax, 72 h |
| --- | --- |
| CN1CCN(CCOc2cc(OC3CCOCC3)c3c(Nc4c(Cl)ccc5c4OCO5)ncnc3c2)CC1 [Saracatinib/AZD0530] (max 10 µM) | 0.148 GR |
| Cc1cc(C(C)Nc2ccccc2)c2nc(N3CCOCC3)cc(=O)n2c1 (centres undefined) [TGX221] (max 10 µM) | 0.951 GR |
| CN(C)C/C=C/C(=O)Nc1ccc(C(=O)Nc2cccc(Nc3ncc(Cl)c(-c4c[nH]c5ccccc45)n3)c2)cc1 [THZ1] (max 1 µM) | -0.525 GR |
| CN(C)C/C=C/C(=O)Nc1ccc(C(=O)N2CCC[C@@H](Nc3ncc(Cl)c(-c4c[nH]c5ccccc45)n3)C2)cc1 [THZ531] (max 1 µM) | -0.625 GR |
| CN(C)C/C=C/C(=O)Nc1ccc(C(=O)Nc2cccc(Nc3cc(-c4c[nH]c5ccccc45)ncn3)c2)cc1 [THZ-P1-2] (max 10 µM) | -0.181 GR |
| Cc1nc(-c2cn3c(n2)-c2ccc(-c4cnn(C(C)(C)C(N)=O)c4)cc2OCC3)n(C(C)C)n1 [Taselisib/GDC0032] (max 10 µM) | 0.0593 GR |
| O=C1NC(=O)[C@@H](c2cn3c4c(cccc24)CCC3)[C@@H]1c1c[nH]c2ccccc12 [Tivantinib/ARQ197] (max 10 µM) | -0.15 GR |
| Nc1ccc(-c2ccc3ncc4ccc(=O)n(-c5cccc(C(F)(F)F)c5)c4c3c2)cn1 [Torin2] (max 1 µM) | 0.128 GR |
| CC[C@@H]1C(=O)N(C)c2cnc(Nc3ccc(C(=O)N[C@H]4CC[C@H](N5CCN(CC6CC6)CC5)CC4)cc3OC)nc2N1C(C)C [Volasertib/BI6727] (max 1 µM) | -0.0887 GR |
| O=C(CCCCCCC(=O)Nc1ccccc1)NO [Vorinostat] (max 10 µM) | 0.0566 GR |
| C=CC(=O)Nc1ccc(C(=O)Nc2[nH]nc3c2CN(C(=O)N[C@H](CN(C)C)c2ccccc2)C3(C)C)cc1 [YKL-5-124] (max 10 µM) | -0.162 GR |
| CN1CCN(C(=O)c2ccc3cc(CCNc4ncnc5ccc(C#N)cc45)ccc3c2)CC1 [senexin b] (max 10 µM) | 0.851 GR |

What follows are compounds tested on T47D (assay: GRmax, 72 h; higher = less effect;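 note: breast cell lines in 384-well plates, nine doses across a 10^4 range, Dye Drop imaging of viable cells vs DMSO and time-zero plates, GR 0 means no net growth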).

| Structure (SMILES) | GRmax, 72 h |
| --- | --- |
| O=C1NC(=NCc2cccs2)SC1=Cc1ccc2ncccc2c1 [R0-3306] (max 10 µM) | -0.0261 GR |
| CNCc1ccc(-c2[nH]c3cc(F)cc4c3c2CCNC4=O)cc1 [Rucaparib] (max 10 µM) | 0.854 GR |
| CC1(N)CCN(c2cnc(-c3cccc(Cl)c3Cl)c(N)n2)CC1 [SHP099] (max 10 µM) | 0.879 GR |
| CN1CCN(CCOc2cc(OC3CCOCC3)c3c(Nc4c(Cl)ccc5c4OCO5)ncnc3c2)CC1 [Saracatinib/AZD0530] (max 10 µM) | 0.389 GR |
| Cc1cc(C(C)Nc2ccccc2)c2nc(N3CCOCC3)cc(=O)n2c1 (centres undefined) [TGX221] (max 10 µM) | 0.799 GR |
| CN(C)C/C=C/C(=O)Nc1ccc(C(=O)Nc2cccc(Nc3ncc(Cl)c(-c4c[nH]c5ccccc45)n3)c2)cc1 [THZ1] (max 1 µM) | -0.279 GR |
| CN(C)C/C=C/C(=O)Nc1ccc(C(=O)N2CCC[C@@H](Nc3ncc(Cl)c(-c4c[nH]c5ccccc45)n3)C2)cc1 [THZ531] (max 1 µM) | -0.141 GR |
| CN(C)C/C=C/C(=O)Nc1ccc(C(=O)Nc2cccc(Nc3cc(-c4c[nH]c5ccccc45)ncn3)c2)cc1 [THZ-P1-2] (max 10 µM) | -0.453 GR |
| Cc1nc(-c2cn3c(n2)-c2ccc(-c4cnn(C(C)(C)C(N)=O)c4)cc2OCC3)n(C(C)C)n1 [Taselisib/GDC0032] (max 10 µM) | -0.105 GR |
| O=C1NC(=O)[C@@H](c2cn3c4c(cccc24)CCC3)[C@@H]1c1c[nH]c2ccccc12 [Tivantinib/ARQ197] (max 10 µM) | -0.154 GR |
| Nc1ccc(-c2ccc3ncc4ccc(=O)n(-c5cccc(C(F)(F)F)c5)c4c3c2)cn1 [Torin2] (max 1 µM) | 0.0099 GR |
| CC[C@@H]1C(=O)N(C)c2cnc(Nc3ccc(C(=O)N[C@H]4CC[C@H](N5CCN(CC6CC6)CC5)CC4)cc3OC)nc2N1C(C)C [Volasertib/BI6727] (max 1 µM) | -0.159 GR |
| O=C(CCCCCCC(=O)Nc1ccccc1)NO [Vorinostat] (max 10 µM) | -0.157 GR |
| C=CC(=O)Nc1ccc(C(=O)Nc2[nH]nc3c2CN(C(=O)N[C@H](CN(C)C)c2ccccc2)C3(C)C)cc1 [YKL-5-124] (max 10 µM) | -0.146 GR |
| CN1CCN(C(=O)c2ccc3cc(CCNc4ncnc5ccc(C#N)cc45)ccc3c2)CC1 [senexin b] (max 10 µM) | 0.213 GR |

Each compound was assayed on SUM229PE (assay: GRmax, 72 h; higher = less effect;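 note: breast cell lines in 384-well plates, nine doses across a 10^4 range, Dye Drop imaging of viable cells vs DMSO and time-zero plates, GR 0 means no net growth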).

| Structure (SMILES) | GRmax, 72 h |
| --- | --- |
| O=C1NC(=NCc2cccs2)SC1=Cc1ccc2ncccc2c1 [R0-3306] (max 10 µM) | -0.07 GR |
| CNCc1ccc(-c2[nH]c3cc(F)cc4c3c2CCNC4=O)cc1 [Rucaparib] (max 10 µM) | 0.888 GR |
| CC1(N)CCN(c2cnc(-c3cccc(Cl)c3Cl)c(N)n2)CC1 [SHP099] (max 10 µM) | 0.936 GR |
| CN1CCN(CCOc2cc(OC3CCOCC3)c3c(Nc4c(Cl)ccc5c4OCO5)ncnc3c2)CC1 [Saracatinib/AZD0530] (max 10 µM) | 0.236 GR |
| Cc1cc(C(C)Nc2ccccc2)c2nc(N3CCOCC3)cc(=O)n2c1 (centres undefined) [TGX221] (max 10 µM) | 0.994 GR |
| CN(C)C/C=C/C(=O)Nc1ccc(C(=O)Nc2cccc(Nc3ncc(Cl)c(-c4c[nH]c5ccccc45)n3)c2)cc1 [THZ1] (max 1 µM) | -0.297 GR |
| CN(C)C/C=C/C(=O)Nc1ccc(C(=O)N2CCC[C@@H](Nc3ncc(Cl)c(-c4c[nH]c5ccccc45)n3)C2)cc1 [THZ531] (max 1 µM) | -0.146 GR |
| CN(C)C/C=C/C(=O)Nc1ccc(C(=O)Nc2cccc(Nc3cc(-c4c[nH]c5ccccc45)ncn3)c2)cc1 [THZ-P1-2] (max 10 µM) | -0.655 GR |
| Cc1nc(-c2cn3c(n2)-c2ccc(-c4cnn(C(C)(C)C(N)=O)c4)cc2OCC3)n(C(C)C)n1 [Taselisib/GDC0032] (max 10 µM) | -0.0501 GR |
| O=C1NC(=O)[C@@H](c2cn3c4c(cccc24)CCC3)[C@@H]1c1c[nH]c2ccccc12 [Tivantinib/ARQ197] (max 10 µM) | -0.423 GR |
| Nc1ccc(-c2ccc3ncc4ccc(=O)n(-c5cccc(C(F)(F)F)c5)c4c3c2)cn1 [Torin2] (max 1 µM) | -0.0085 GR |
| CC[C@@H]1C(=O)N(C)c2cnc(Nc3ccc(C(=O)N[C@H]4CC[C@H](N5CCN(CC6CC6)CC5)CC4)cc3OC)nc2N1C(C)C [Volasertib/BI6727] (max 1 µM) | -0.356 GR |
| O=C(CCCCCCC(=O)Nc1ccccc1)NO [Vorinostat] (max 10 µM) | -0.0664 GR |
| C=CC(=O)Nc1ccc(C(=O)Nc2[nH]nc3c2CN(C(=O)N[C@H](CN(C)C)c2ccccc2)C3(C)C)cc1 [YKL-5-124] (max 10 µM) | -0.0428 GR |
| CN1CCN(C(=O)c2ccc3cc(CCNc4ncnc5ccc(C#N)cc45)ccc3c2)CC1 [senexin b] (max 10 µM) | 0.696 GR |

Each compound was assayed on EFM19 (assay: GRmax, 72 h; higher = less effect;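 note: breast cell lines in 384-well plates, nine doses across a 10^4 range, Dye Drop imaging of viable cells vs DMSO and time-zero plates, GR 0 means no net growth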).

| Structure (SMILES) | GRmax, 72 h |
| --- | --- |
| O=C1NC(=NCc2cccs2)SC1=Cc1ccc2ncccc2c1 [R0-3306] (max 10 µM) | 0.0987 GR |
| CNCc1ccc(-c2[nH]c3cc(F)cc4c3c2CCNC4=O)cc1 [Rucaparib] (max 10 µM) | 0.96 GR |
| CC1(N)CCN(c2cnc(-c3cccc(Cl)c3Cl)c(N)n2)CC1 [SHP099] (max 10 µM) | 0.992 GR |
| CN1CCN(CCOc2cc(OC3CCOCC3)c3c(Nc4c(Cl)ccc5c4OCO5)ncnc3c2)CC1 [Saracatinib/AZD0530] (max 10 µM) | 0.139 GR |
| Cc1cc(C(C)Nc2ccccc2)c2nc(N3CCOCC3)cc(=O)n2c1 (centres undefined) [TGX221] (max 10 µM) | 0.843 GR |
| CN(C)C/C=C/C(=O)Nc1ccc(C(=O)Nc2cccc(Nc3ncc(Cl)c(-c4c[nH]c5ccccc45)n3)c2)cc1 [THZ1] (max 1 µM) | -0.293 GR |
| CN(C)C/C=C/C(=O)Nc1ccc(C(=O)N2CCC[C@@H](Nc3ncc(Cl)c(-c4c[nH]c5ccccc45)n3)C2)cc1 [THZ531] (max 1 µM) | -0.557 GR |

Source: the supplement of paper PMC9663587
